± gives the expanded uncertainty stated by the source.
Assay: mn = molality of the nth substance listed, in mol/kg
Conditions: 298.15 K, 101 kPa, Liquid, Vibrating tube method

CC(=O)[O-].[K+] [potassium ethanoate] + O
Conditions | mass density [kg/m3]
m1 = 0.05 | 999.46 ± 0.12
m1 = 0.16 | 1004.6 ± 0.1
m1 = 0.25 | 1008.74 ± 0.12

O=S(=O)(O)CC(O)CN1CCOCC1 (stereo not drawn) [3-morpholino-2-hydroxypropanesulfonic acid] + O
Conditions | mass density [kg/m3]
m1 = 0.0126 | 998.04 ± 0.13
m1 = 0.0178 | 998.45 ± 0.13
m1 = 0.0228 | 998.84 ± 0.13
m1 = 0.027 | 999.17 ± 0.13
m1 = 0.036 | 999.87 ± 0.13
m1 = 0.045 | 1000.57 ± 0.13
m1 = 0.0519 | 1001.1 ± 0.13
m1 = 0.063 | 1001.95 ± 0.13
m1 = 0.0706 | 1002.53 ± 0.13
m1 = 0.0771 | 1003.03 ± 0.13

O=S(=O)(O)CCCCN1CCOCC1 [4-morpholinebutanesulfonic acid] + O
Conditions | mass density [kg/m3]
m1 = 0.0134 | 997.89 ± 0.13
m1 = 0.0201 | 998.3 ± 0.13
m1 = 0.0282 | 998.8 ± 0.13
m1 = 0.0365 | 999.31 ± 0.13
m1 = 0.0456 | 999.87 ± 0.13
m1 = 0.054 | 1000.38 ± 0.13
m1 = 0.0636 | 1000.96 ± 0.13
m1 = 0.0702 | 1001.35 ± 0.13
m1 = 0.0768 | 1001.74 ± 0.13
m1 = 0.0827 | 1002.09 ± 0.13

O=S(=O)(O)CCCN1CCOCC1 [4-morpholinepropanesulfonic acid] + O
Conditions | mass density [kg/m3]
m1 = 0.0077 | 997.53 ± 0.12
m1 = 0.0172 | 998.13 ± 0.12
m1 = 0.0292 | 998.88 ± 0.12
m1 = 0.0386 | 999.46 ± 0.12
m1 = 0.0496 | 1000.14 ± 0.12
m1 = 0.0556 | 1000.5 ± 0.12
m1 = 0.0611 | 1000.84 ± 0.12
m1 = 0.0668 | 1001.19 ± 0.12
m1 = 0.0736 | 1001.59 ± 0.12
m1 = 0.0812 | 1002.05 ± 0.12
m1 = 0.0869 | 1002.39 ± 0.12

O=S(=O)(O)CCN1CCOCC1 [4-morpholineethanesulfonic acid] + O
Conditions | mass density [kg/m3]
m1 = 0.0114 | 997.79 ± 0.13
m1 = 0.018 | 998.22 ± 0.13
m1 = 0.0237 | 998.59 ± 0.13
m1 = 0.0301 | 999.01 ± 0.13
m1 = 0.0403 | 999.67 ± 0.13
m1 = 0.0513 | 1000.38 ± 0.13
m1 = 0.0614 | 1001.03 ± 0.13
m1 = 0.0722 | 1001.72 ± 0.13
m1 = 0.0822 | 1002.35 ± 0.13
m1 = 0.0947 | 1003.14 ± 0.13

[Cl-].[Na+] [sodium chloride] + O
Conditions | mass density [kg/m3]
m1 = 0.05 | 999.12 ± 0.13
m1 = 0.16 | 1003.6 ± 0.1
m1 = 0.25 | 1007.22 ± 0.13

[Cl-].[K+] [potassium chloride] + O
Conditions | mass density [kg/m3]
m1 = 0.05 | 999.45 ± 0.12
m1 = 0.16 | 1004.53 ± 0.12
m1 = 0.25 | 1008.66 ± 0.12

[Br-].[K+] [potassium bromide] + O
Conditions | mass density [kg/m3]
m1 = 0.05 | 1001.25 ± 0.13
m1 = 0.16 | 1010.47 ± 0.13
m1 = 0.25 | 1017.89 ± 0.14

— the NIST ThermoML archive (doi:10.1016/j.tca.2010.04.004)
